Data on one compound can be found in publication PMC3130785, “Small Compound 6-O-Angeloylplenolin Induces Mitotic Arrest and Exhibits Therapeutic Potentials in Multiple Myeloma” (PLoS ONE, 2011).

What all share (type): cell-based, human
The subject of series [1] is normal PBMCs from 5 healthy volunteers. The series can be described thus: MTT assay on normal PBMCs. Conditions: 48 h. The text has this: CD138+ cells from 7 MM patients were isolated with informed consent from BM mononuclear cells by using positive immunomagnetic column separation (Miltenyi Biotech, Auburn, CA). The purity of CD138+ cells is above 97% as determined by flow cytometry. BMSCs were generated from a MM patient-derived CD138-negative BM mononuclear cells cultured for 5 weeks. Peripheral blood mononuclear cells (PBMCs) from 5 healthy donors were separated by Ficoll-Hipaque density sedimentation.
(§1) U266, RPMI 8226 cells (1×10^4), primary CD138+ cells, PBMCs (5×10^4), and BMSCs (1×10^4) were cultured in 96-well dishes and incubated without or with 6-OAP at indicated concentration for 48 h. MM.1S and MM.1R cells (2×10^4) were seeded into 96-well dishes and pre-cultured for 24 h, then treated with 6-OAP for 48 h. Cell proliferation was determined by MTT assay. Cell viability was estimated by trypan blue dye exclusion.
(In general: Tetrazolium assays rely on reduction of a dye to a coloured formazan, in cell work by metabolically active cells.)

In a further series the test system is MM.1R cells. The series can be described thus: MTT assay, Dex with or without 6-OAP. As to conditions: 48 h, 6-OAP 7.5 µM. How it is done:
as §1
Figure 4 6-OAP enhances cytotoxicity of Dox, Dex and BOR to MM cells. (A through C) MM.1S cells were treated for 48 h with Dox (A), Dex (B) or BOR (C) in the presence or absence of 6-OAP at 5 µM. MTT assay was used to test the proliferation of MM.1S cells. (D) MM.1R cells were treated for 48 h with Dex in the presence or absence of 6-OAP at 7.5 µM. MTT assay was used to test the proliferation of MM.1R cells. *p<.001,** p<.05. (E) MM.1S cells were cultured with control media (con), 6-OAP (O, 5 µM), BOR (B, 3 nM), or 6-OAP (5 µM) plus BOR (3 nM) (OB) for indicated time points. Cells were then lysed and subjected to Western blotting using indicated antibodies. CF, cleavage fragment.

The next series relates to U266 cells. The experiment in a line: Cell cycle distribution by flow cytometry. Conditions: 5 to 10 µM for 48 h. How it is done:
(§2) MM cells were synchronized to G1/S boundary by a double-thymidine block. Briefly, cells were treated with 2 mM thymidine (Sigma-Aldrich) for 16 h, released into fresh medium for 9 h and subjected again to thymidine for another 16 h and then exposed to 6-OAP for indicated time points. Cells were harvested, fixed with 70% cold ethanol, incubated with RNase, and stained with propidium iodide (PI) (Sigma-Aldrich). Cell cycle distribution was analyzed by flow cytometry and CellQuest software (Becton Dickson).
(§3) Figure 2 6-OAP induces mitotic arrest in MM cells. (A) U266 cells were treated with 6-OAP at 7.5 µM for 0, 24, 48 h and imaged by Leica DMI 400B microscope. (B) U266 cells were treated with 6-OAP at indicated concentrations for 48 h. Cell cycle distribution was determined by flow cytometry. (C) MM.1S cells were treated with 5 µM 6-OAP for 48 h. Cell cycle distribution was determined by flow cytometry. (D) U266 cells were treated with 6-OAP at 5 to 7.5 µM for 24 h (left panel) or at 7.5 µM for 12 to 24 h (right panel). For immunofluorescence analysis of microtubules, cells was stained with an anti-α-tubulin antibody to visualize microtubules (green) and DAPI to counter stained DNA (blue) and observed by confocal microscopy. (E) Indicated cells were treated with 6-OAP at indicated concentration for 24 h, lysed, and Western blotting was performed using antibodies indicated. […]

A further series has as its system MM.1S cells. The series can be described thus: Cell cycle distribution by flow cytometry. Conditions: 5 to 10 µM for 48 h. The method, then: as §2, §3
(Flow cytometry measures light scatter and fluorescence of single cells or particles in a stream.)

SMILES strings stand for the structures.

As for `CC=C(C)C(=O)OC1C2C(CC(C)C3C=CC(=O)C31C)OC(=O)C2C` (stereo not shown) [6-OAP, 6-O-angeloylplenolin], the “growth of normal PBMCs” value in series [1] was “did not drastically affect the growth”. In addition, the “effect on inhibitory effect of Dex” value in the series with MM.1R cells is reported as “drastically potentiated inhibitory effect”. The “cells in G2/M phase” value in the series with U266 cells and in the series on MM.1S cells was “accumulation” throughout.
